One assay deals with N2a neuroblastoma cells. In words: N2a cellular assay (neurite outgrowth). The format is cell-based. Conditions: for optimal concentration for enhancement of neurite outgrowth: U-shaped dose-dependency, N2a-cells; for effect of high concentrations on neuronal differentiation: FIG. 1A, 1D; for enhancement of neurite outgrowth of N2a cells: compared to unselective FKBP ligand FK506, FIG. 1. As for the experimental part: At day one N2a cells were plated into 24-well plates with cover slips (pretreated with polylysine) at a density of 35,000 cells/well and cultured with DMEM (incl. FCS 10% and Pen/Strep 1%) for 24 h. Next, cells were transfected with 80 ng expression plasmids encoding Venus as well as 720 ng pRK5 (mock transfection) in a total volume of 500 μl starvation media containing different concentrations of compounds or DMSO for 36 h (media without FCS; induction of neurite outgrowth). Therefore media was removed and replaced by 400 μl DMEM (empty). Next an equivalent volume of plasmids were given to 50 μl OPTIMEM and incubated for 5 min at RT. Additionally 1.5 μl Lipofectamine 2000 was separately dissolved in 50 μl OPTIMEM. After 5 min both solutions (plasmids and Lipofactamine 2000 containing media) were combined and incubated again for another 20 min. After that 100 μl of this mixture was given to 400 μl media per well. (See also protocol of the provider—Life Technologies).
On the next day cells were washed with PBS and incubated for 30 min with 300 μl PFA (4%) and sucrose (5%) to fix cells. After fixation cells were washed three times, mounted onto microscope slides using 4 μl Vectashield (mounting media) and analyzed by fluorescence microscopy. Each bar represents the mean of the neurite length of 30-50 cells after the indicated treatment (FIGS. 1-2).

In a further assay the target is T1, FKBP52 (Homo sapiens, UniProt Q02790).
T1 construct: Purified FK1-domains of FKBP51WT (4.5 nM) with F4 (3 nM), FKBP52WT (400 nM) with F2 (20 nM); implied by Ni-NTA purification) (N); made in house; host or cells: E. coli BL21(DE3)pLysS
T1 sequence (Q02790 50-138 limits assumed): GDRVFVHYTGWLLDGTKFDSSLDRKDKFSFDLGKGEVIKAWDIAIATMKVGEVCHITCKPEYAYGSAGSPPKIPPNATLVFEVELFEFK
In words: Fluorescence polarization binding assay, FK1-domain of FKBP52WT with tracer F2 (selectivity FKBP51 vs. FKBP52). The conditions noted are these: selectivity factor over FKBP52. In outline:
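Compounds titrated against FK1 domain of FKBP52 WT with fluorescent tracer F2, in duplicate; competition curves fitted to four-parameter logistic for IC50. Ki derived from exact competitive-binding equation using tracer Kd; selectivity expressed as Ki(FKBP51)/Ki(FKBP52).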
A general note: Fluorescence polarisation rises when a labelled molecule tumbles more slowly, as on binding a larger partner.

In assay [1] the target is T2, FKBP51 (Homo sapiens, UniProt Q13451).
T2 sequence (Q13451 42-130 limits assumed): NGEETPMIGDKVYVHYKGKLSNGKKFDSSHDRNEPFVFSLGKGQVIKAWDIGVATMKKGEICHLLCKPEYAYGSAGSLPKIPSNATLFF
In words: Fluorescence polarization binding assay, FK1-domain of FKBP51WT with tracer F4. Set-up: Purified FK1-domains of FKBP51WT (4.5 nM) with F4 (3 nM), FKBP52WT (400 nM) with F2 (20 nM); made in house; host or cells: E. coli BL21(DE3)pLysS. Summed up: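 Competitive fluorescence polarization with tracer F4 and FKBP51 FK1 domain (wild type), compounds titrated by serial dilution from DMSO stock, run in duplicate. IC50 from four-parameter logistic fit; inhibition constants from an exact competitive-binding equation using tracer and inhibitor Kd values.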

In the next assay the test system is C57Bl/6N mice. In words: Forced swim test (FST). In kind it is in vivo. Conditions: FIG. 2D. The procedure:
For the forced swim test (FST), male C57Bl/6N mice at the age of 12 weeks were single housed and acclimated to the room for 2 weeks before the experiment. […] The next morning, mice were subjected to a FST to assess stress-coping behavior. Each mouse was put into a 2 l glass beaker for 6 min and analyzed using an automated video-tracking system (Anymaze 4.20, Stoelting, Ill., USA). Time spent immobile (floating) and time spent struggling was scored by an experienced observer, blind to treatment or condition of the animals.

Another assay concerns C57BL/6 mice. In words: Combined Dex/CRH test (neuroendocrine analysis, plasma CORT). In kind it is in vivo. Conditions: 20 mg/kg i.p.; FIG. 2E. The procedure:
Briefly, a reference blood sample was collected by an incision in the ventral tail vessel at 1500, three days prior to the actual test (‘untreated’ value). […] The injected volume was 0.3 ml for each injection. At 1500, a second blood sample was drawn from the tail vessel (‘after Dex’ value), immediately followed by an i.p. injection of CRH (0.15 mg/kg). Thirty minutes later, the mice were sacrificed and trunk blood was collected (‘after CRH’ value).

Assay [2] addresses T2, FKBP51. In words: Fluorescence polarization binding assay, FK1-domain of FKBP51WT with tracer F4. Details: Purified FK1-domains of FKBP51WT (4.5 nM) with F4 (3 nM), FKBP52WT (400 nM) with F2 (20 nM); implied by Ni-NTA purification) (N); made in house; host or cells: E. coli BL21(DE3)pLysS. The conditions noted are these: compounds B01-C25; read-out: Affinity(Ki) for FKBP51. The procedure:
The target protein was also diluted in this assay buffer at double the highest concentration required for the final sample. This protein stock was used for a 1:1 serial dilution.
The inventive compound was dissolved in DMSO to reach a 100-times concentrated stock solution. This was used for a 1:1 serial dilution in DMSO.
For FKBP12, −51, and −52 the binding assays were performed in duplicates in the plate format.
The competition curves were analyzed by using SigmaPlot9. Data were fitted to a four parameter logistic curve to deduce the IC50 values. […]
Inhibition constants were measured in a fluorescence polarization binding assay by titrating the compounds.

This note sets out measurements from US9845292B2 (Max-Planck-Gesellschaft zur Förderung der Wissenschaften …, priority 2013, dated 2017).

SMILES strings stand for the structures. Entries after “also recorded” stand apart in the source; their conditions may differ. Like-named read-outs stand apart in the source and are kept apart here.

As to `C[C@]12CCC(=O)C=C1CC[C@@H]1[C@@H]2[C@@H](O)C[C@]2(C=O)[C@@H](C(=O)CO)CC[C@@H]12` [Aldosterone, reference compound], the “optimal concentration for enhancement of neurite outgrowth” value in the assay with N2a neuroblastoma cells was 100 nM.
A word on the Ki: it is a dissociation constant, usually derived from enzyme kinetics or from competition with a known ligand. Take `COc1ccc(CC[C@@H](OC(=O)[C@@H]2CCCCN2C(=O)[C@H](c2cc(OC)c(OC)c(OC)c2)C2CCCCC2)c2cccc(OCC(=O)O)c2)cc1OC` [Compound A17, 2-(3-((R)-1-(((S)-1-((S)-2-Cyclohexyl-2-(3,4,5-trimethoxyphenyl)acetyl)piperidine-2-carbonyl)oxy)-3-(3,4-dimethoxyphenyl)propyl)phenoxy)acetic acid]: the “rescue of reduced neurite length triggered by Ru26988” value in the assay with N2a neuroblastoma cells (1 μM Ru26988, 10 nM A17, FIG. 2A, 2B) is reported as “rescues reduced neurite length”. The “protection of neurite outgrowth from the suppressing effect of high steroid concentrations” value in the assay on N2a neuroblastoma cells (1 μM aldosterone or 1 μM RU26988, FIG. 2A-2C) is “able to protect the neutrite outgrowth of N2a from the suppressing effect of high steroid concentrations”. In the assay with N2a neuroblastoma cells, the “effect of high concentrations on neuronal differentiation” value is listed as “do not lead to reduction of the neuronal differentiation” and the “enhancement of neurite outgrowth of N2a cells” value is recorded as “stronger enhancement of neurite outgrowth; also recorded: promote neurite outgrowth in N2a cells more potently compared to FK506”. Also, the “rescue of reduction of neurite outgrowth triggered by aldosterone” value in the assay on N2a neuroblastoma cells (aldosterone 1 μM, FIG. 2B, 2C) is given as “reverts the reduction of neurite outgrowth”. At FKBP52 (FKBP52WT (400 nM) with F2 (20 nM), A series), the “Ki(FKBP51)/Ki(FKBP52)” value is given as “++++ (>5000 ++++)”. Further, the Ki at FKBP51 [1] is < 100 nM.
In the case of `COc1ccc(CC[C@@H](OC(=O)[C@@H]2CCCCN2C(=O)[C@H](c2cc(OC)c(OC)c(OC)c2)C2CCCCC2)c2cccc(OCCN3CCOCC3)c2)cc1OC` [Compound A18], in the assay on N2a neuroblastoma cells, the “effect of high concentrations on neuronal differentiation” value was “do not lead to reduction of the neuronal differentiation” and the “enhancement of neurite outgrowth of N2a cells” value is recorded as “stronger enhancement of neurite outgrowth; also recorded: promote neurite outgrowth in N2a cells more potently compared to FK506”. In addition, in the assay with C57Bl/6N mice (20.0 mg/kg), the “floating time in forced swim test” value is given as “reduced floating time” and the “struggling time in forced swim test” value is “enhanced struggling time”. The “stress-coping behavior in the Forced Swim Test” value in the assay on C57Bl/6N mice (single injection 20.0 mg/kg, 16 hours prior to testing) is reported as “elicited a more active stress-coping behavior”. Besides, in the assay with C57BL/6 mice, the “regulation of stress hormone secretion” value is given as “enhances the regulation of stress hormone secretion”.
Consider `COc1cc([C@@H](C(=O)N2CCCC[C@H]2C(=O)OCCCO)C2CCCCC2)cc(OC)c1OC` [Compound C22], for which, at FKBP52 (compounds B01-C25), the “Ki(FKBP51)/Ki(FKBP52)” value is listed as “+++ (>500 +++)”. Further, on FKBP51 [2], the inhibition constant Ki lay in the range of 1000 to 10000 nM.
For `COc1cc([C@@H](C(=O)N2CCCC[C@H]2C(=O)OC(C)CO)C2CCCCC2)cc(OC)c1OC` (some centres unmarked) [Compound C25], the “Ki(FKBP51)/Ki(FKBP52)” value at FKBP52 (compounds B01-C25) is “++ (>50 ++)”. Besides, at FKBP51 [2], the Ki fell in the range of 1000 to 10000 nM.
As to `C=CC[C@@H]1/C=C(\C)C[C@H](C)C[C@H](OC)[C@H]2O[C@@](O)(C(=O)C(=O)N3CCCC[C@H]3C(=O)O[C@H](/C(C)=C/[C@@H]3CC[C@@H](O)[C@H](OC)C3)[C@H](C)[C@@H](O)CC1=O)[C@H](C)C[C@@H]2OC` [FK506, reference compound], the “concentrations at which the neurite outgrowth stimulating effect is lost” value in the assay on N2a neuroblastoma cells (FIG. 1B) was in the range of 300 to 1000 nM.
Consider `CC#C[C@]1(O)CC[C@H]2[C@@H]3C=CC4=CC(=O)C=C[C@]4(C)[C@H]3[C@@H](O)C[C@@]21C` [Ru26988, RU26988, reference compound], for which the “optimal concentration for enhancement of neurite outgrowth” value in the assay with N2a neuroblastoma cells was found to be 100 nM.
